The test system of data set [1] is human mammary carcinoma MCF-7. The data set can be described thus: MTT colorimetric proliferation test, 5 days. In kind it is cell-based. Conditions: MCF7, 120 h, read-out: percentage of cell proliferation relative to the untreated control taken as 100%. Here is the method:
(§1) Among other cells used, the following lines were routinely cultured in RPMI medium supplemented with 10% foetal calf serum (FCS):
human mammary carcinoma MCF-7
(§2) The antitumour activity is measured according to the colorimetry method using MTT, 3-(4,5-dimethylthiazole-2,5-diphenyltetrazolium) bromide as described by Mosmann T., Journ. of Im. Methods; 1983, 65, 55.
(§3) This colorimetric assay makes it possible to measure quantitatively the antitumour activity of a solution containing a compound used according to the invention.
(§4) According to the procedure used, the suspended cells (such as the myeloma cells) are inoculated at 2×10^3 cells/ml in 1 ml wells in defined medium. The adherent cells (such as the MCF-7 cells) are inoculated at 5×10^4 cells/ml in 1 ml wells in RPMI medium+0.5% FCS overnight. The next day, the cell carpet is washed twice and replaced by the defined medium.
(§5) The defined medium corresponds to: RPMI+10 μg/ml insulin+10 μg/ml human transferrin.
(§6) In order to carry out this test, cells are maintained in the presence of the solution containing a compound used according to the invention for 5 days, and the MTT is then added to the culture medium.
(§7) The 5 day period which was selected corresponds to the optimum time for the activity. After culturing for 5 days, the proliferation of the cells is measured by the test described above. The optical density at 570 nm is measured. A blue coloration develops in the wells where the cells are still alive. The intensity of the coloration is proportional to the quantity of live cells.

Data set [2] concerns human lung carcinoma A549. The data set can be described thus: MTT colorimetric proliferation test, 5 days. In kind it is cell-based. Conditions: 120 h, read-out: percentage of cell proliferation relative to the untreated control taken as 100%. How it is done: as §1
human lung carcinoma A549
as §2, §3, §4, §5, §6, §7

In a further data set the test system is SN 47 p4 normal cells. The data set can be described thus: proliferation of mammary epithelial cells, IC50 after 6 days. The format is cell-based. Conditions: Epithelial cell, 144 h, 6 days of treatment. How it is done:
(§8) Another study was also performed in order to determine the effect of SR 31747 on the in vitro and in vivo growth of mammary and prostate epithelial tumour cells.
(§9) The study consisted in evaluating the potential antitumour activity of SR 31747 on the growth of a variety of cancerous breast epithelial lines. The study is carried out in vitro on cell cultures, as well as in vivo after inoculation of tumoral mammary lines in "nude" athymic mice.
(§10) Table B--Effect of SR 31747 on the proliferation of mammary epithelial cells. Determination of the IC50 after 6 days of treatment--medium changed every 48 hours

In the next data set the test system is LCC2 p26-27 (MCF-7LCC2). The data set is described as above. In kind it is cell-based, human. Conditions: 6 days of treatment. Here is the method: as §8, §9
(§11) The cell lines which were used are as follows:
(§12) The hormone-sensitive MCF-7 line originates from a pleural effusion of a breast adenocarcinoma. The antioestrogen-resistant MCF-7LY2 cells were obtained from the MCF-7LCC1 and MCF-7LCC2 lines were developed in nude mice, after inoculation of the MCF-7 cells. The two lines are oestrogen-independent. The MCF-7CC2 cells are also antioestrogen-resistant. The MCF-7AZTD5 line is derived from the MCF-7 line after stable transfection with the H-ras oncogene. The MCF-7AZTD5 cells are antioestrogen-resistant in vitro. All of these lines are maintained on DMEM/F12 (1/1, vol/vol) containing 10% decomplemented foetal calf serum and 16 ng/ml of human insulin. The MCF-7LCC2 line is cultured in the permanent presence of 10^-7 M hydroxytamoxifen. The MDA-MB231 tumoral mammary epithelial cells are oestrogen- and antioestrogen-insensitive. They are cultured in L15 medium supplemented with 10% FCS, 1% essential amino acids and 10 μg/ml of human insulin.
All the lines are maintained at 37° C. in a humid air/CO2 (95%/5%) atmosphere, except for the MDA-MB231 cells which are cultured in the absence of CO2. THe cell lines are checked regularly free of mycoplasms.
as §10

Data set [3] deals with mammary tumoral epithelial cells. The data set can be described thus: proliferation of tumoral breast epithelial lines, summary statements. The format is cell-based. Here is the method:
as §8, §9, §11
as §12, with “They are cultured in L15 medium supplemented with 10% FCS, 1% essential amino acids and 10 μg/ml of human insulin.” left out

The subject of the next data set is MDA-MB231 cells. The data set can be described thus: tumours developed in ovariectomized nude mice from MDA-MB231 cells. In kind it is in vivo. Conditions: 500 μg SR 31747 + E2 daily intraperitoneally, to day 92. Here is the method:
The inoculation and treatment of the animals were carried out as follows:
The animals used are "nude" female athymic mice, which may or may not have been ovariectomized, obtained at 4 weeks old (R. Janvier). Before inoculating the hormone-sensitive mammary cells (MCF-7, MCF-7AZTD5), the animals receive 10 μl pf ethanolic 10 ^-5 oestradiol solution applied percutaneously. The treatment is repeated three times over one week. One million cells suspended in 100 μl of PBS/Ca are inoculated subcutaneously above each of the hips. The following day, the animals receive 200 μl of injection solution (ethanol/Tween 80/physiological saline, 1/1/18, vol/vol) containing the various reactions at the predefined concentrations. The injections are made intraperitoneally and are repeated every day.
FIGS. 1 and 2 indicate the effect of SR 31747 on tumours developed in ovariectomized "nude" mice from MDA-MB231 cells.
Each mouse receives 5×10^6 MDA-MB231 cells above each hip (i.e. 2 points of inoculation per mouse). The animals are then treated daily via the intraperitoneal route and receive 500 μg SR 31747+0.003 μg E2 (20 mice). The control batch receives 0.0003 μg E2 (20 mice). The amount (as a percentage of inoculated tumours) and size of the tumours developed are determined at different times in the course of the treatment. At the end of the treatment (day 92), the animals are sacrificed and weighed. […]

The source of these data is patent US6235791A, “Use of amines to produce drugs for preventing tumor cell proliferation” (Sanofi-Synthelabo, priority 1996, dated 2001).

For `CCN(C/C=C\c1ccc(C2CCCCC2)c(Cl)c1)C1CCCCC1` [SR 31747, cis-N-Cyclohexyl-N-ethyl [3-(3-chloro-4-cyclo-hexylphenyl)allyl]amine], the activity at 10 pM in data set [1] (MCF-7, 10 pM) stood at 100%; in data set [2] (A549, 10 pM), 100%. Besides, the activity at 0.0001 µM in data set [1] (MCF-7, 100 pM) amounted to 100%; in data set [2] (A549, 100 pM), 88%. Also, the activity at 0.001 µM in data set [1] (MCF-7, 1 nM) is 83%; in data set [2] (A549, 1 nM), 56%. Moreover, the activity at 0.01 µM in data set [1] (MCF-7, 10 nM) was 75%; in data set [2] (A549, 10 nM), 50%. In addition, the activity at 0.1 µM in data set [1] (MCF-7, 100 nM) is 58%; in data set [2] (A549, 100 nM), 38%. Besides, the activity at 1 µM in data set [1] (MCF-7, 1 μM) was determined as 34%; in data set [2] (A549, 1 μM), 14%. The activity at 10 µM in data set [1] (MCF-7, 10 μM) is 5%; in data set [2] (A549, 10 μM) it was 10%. The IC50 is 400 nM with SN 47 p4 normal cells (0.5% FCS); over 10000 nM with SN 47 p4 normal cells (10% FCS); 2 nM in the data set on LCC2 p26-27 (MCF-7LCC2) (Homo sapiens, LCC2, 144 h, LCC2 p26-27, 0.1 DCC); 400 nM with LCC2 p26-27 (MCF-7LCC2) (Homo sapiens, LCC2, 144 h, LCC2 p26-27, 5% DCC); 300 nM with LCC2 p26-27 (MCF-7LCC2) (LCC2 p26-27, 5% DCC). In data set [3] (10^-6 M and occasionally 10^-7 M SR 31747), the “inhibition of cell proliferation at high concentration (cytotoxic effects)” value is “virtually total inhibitions of the cell proliferation”. Besides, in data set [3] (reduced concentrations of saline (serum)), the “action on the proliferation of tumor epithelial lines” value is on record as “exerts an inhibitory action on the proliferation of all the tumor epithelial lines tested”. Besides, the “size, weight and frequency of tumours developed” value in the data set on MDA-MB231 cells is “tendency to reduce the size, weight and frequency of tumours”.
